One assay deals with T1, recombinant human IDE42-1019 (Homo sapiens, UniProt P14735).
T1 construct: recombinant human IDE42-1019 (R&D Systems); purchased R&D Systems
T1 sequence (P14735 42-1019): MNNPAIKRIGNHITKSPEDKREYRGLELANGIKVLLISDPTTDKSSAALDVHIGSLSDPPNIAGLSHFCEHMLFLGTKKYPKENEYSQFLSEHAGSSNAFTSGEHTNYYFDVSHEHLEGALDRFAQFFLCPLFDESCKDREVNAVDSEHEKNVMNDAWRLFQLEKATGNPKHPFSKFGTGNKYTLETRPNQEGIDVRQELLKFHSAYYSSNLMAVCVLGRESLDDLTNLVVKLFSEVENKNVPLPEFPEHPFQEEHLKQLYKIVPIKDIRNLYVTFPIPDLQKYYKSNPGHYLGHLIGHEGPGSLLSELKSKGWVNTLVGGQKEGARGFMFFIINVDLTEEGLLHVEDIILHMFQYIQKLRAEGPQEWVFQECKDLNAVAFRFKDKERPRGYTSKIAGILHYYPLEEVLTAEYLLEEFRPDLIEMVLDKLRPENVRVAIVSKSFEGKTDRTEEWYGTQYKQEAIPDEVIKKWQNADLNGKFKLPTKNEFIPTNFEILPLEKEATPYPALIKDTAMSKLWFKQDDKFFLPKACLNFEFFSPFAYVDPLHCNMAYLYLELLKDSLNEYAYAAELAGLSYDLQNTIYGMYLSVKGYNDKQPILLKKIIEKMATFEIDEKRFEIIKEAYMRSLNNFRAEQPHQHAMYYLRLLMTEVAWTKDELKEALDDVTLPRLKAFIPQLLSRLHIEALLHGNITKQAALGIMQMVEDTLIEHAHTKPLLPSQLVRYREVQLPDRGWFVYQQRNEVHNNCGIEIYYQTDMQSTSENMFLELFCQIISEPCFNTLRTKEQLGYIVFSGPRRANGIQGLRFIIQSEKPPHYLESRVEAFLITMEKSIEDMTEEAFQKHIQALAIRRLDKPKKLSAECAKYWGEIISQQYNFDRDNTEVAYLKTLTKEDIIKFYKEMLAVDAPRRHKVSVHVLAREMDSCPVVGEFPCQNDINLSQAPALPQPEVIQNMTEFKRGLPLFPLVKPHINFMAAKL
Kind of assay: Protease assay with fluorogenic peptide substrate Mca-[…](Dnp)-OH. It is filed as biochemical. Particulars: fluorogenic peptide Mca-RPPGFSAFK(Dnp)-OH; apparent IC50 for compounds with submaximal inhibition; read-out: IC50 (μM) Proteolysis. Here is the method: The proteases IDE42-1019, recombinant human IDE42-1019 (R&D Systems), neprilysin (R&D), and angiotensin-converting enzyme (R&D) were assayed using the fluorophore/quencher-tagged peptide substrate Mca-[…](Dnp)-OH (SEQ ID NO: 24) (R&D) according to the manufacturer's instructions and using the recommended buffers (fluorophore Mca=(7-methoxycourmarin-4-yl)acetyl and quencher Dnp=2,4-dinitrophenyl). For IDE the recommended buffer is 50 mM Tris pH 7.5, 1 M NaCl. The enzyme mixtures (48 μL) were transferred to a 96-well plate and combined with 2 μL of inhibitor in DMSO solutions, in 3-fold dilution series. The mixtures were allowed to equilibrate for 10 minutes and the enzymatic reaction was started by addition of substrate peptide in assay buffer (50 μL), mixed, and monitored on a fluorescence plate reader (excitation at 320 nm, emission at 405 nm). Similarly, thimet oligopeptidase (R&D) and neurolysin (R&D) were assayed using substrate Mca-PLGPK(Dnp)-OH (SEQ ID NO: 25) (R&D) according to the manufacturer's instructions and using the recommended buffers. Matrix metalloproteinase-1 (R&D) was activated and assayed according to the manufacturer's instructions with substrate Mca-KPLGL-Dpa-AR-NH2 (SEQ ID NO: 20) (R&D) (quencher DPA=N-3-(2,4,dinitrophenyl)-L-2,3-diaminopropionyl). All assay data points were obtained in duplicate.
By IC50 is commonly meant the point on the concentration scale where inhibition reaches its midpoint. In the case of `Cc1cccc(-c2ccc([C@H]3[C@H](CO)N4C(=O)CN(C(=O)NC5CCCCC5)C[C@@H]34)cc2)c1` [compound 130], the IC50 was more than 5 µM.

On to `Cc1cccc(-c2ccc(C3CCN(S(=O)(=O)c4ccccc4Oc4ccccc4)CC3)cc2)c1C` [A04], for which the IC50 was 12 µM.

For the molecule `Cc1c(F)ccc(-c2ccc([C@@H]3[C@@H](CO)N4CCCCN(S(=O)(=O)c5ccccc5C(F)(F)F)C[C@@H]34)cc2)c1C` [JP-41], the IC50 worked out at 0.03 µM.

As for `OC[C@H]1[C@@H](c2ccc(C#Cc3ccccc3F)cc2)[C@@H]2CN(Cc3cncnc3)CCCCN12` [compound 683], the IC50 was 7 µM.

As to `Cc1cccc(-c2ccc(C3CCN(S(=O)(=O)c4cccc(C(=O)N(C)C)c4)CC3)cc2)c1C` [A06], the IC50 was 1 µM.

In the case of `Cc1ccccc1S(=O)(=O)N1CCCCN2[C@H](CO)[C@@H](c3ccc(-c4ccccc4)cc3)[C@@H]2C1` [B6], the IC50 worked out at 1 µM.

For the molecule `Cc1ccccc1S(=O)(=O)N1CCCCN2C(C1)[C@H](c1ccc(-c3cccc(C)c3C)cc1)[C@H]2CN` (some centres unmarked) [JP-8N], the IC50 was 0.002 µM.

`Cc1ccccc1S(=O)(=O)N1CCC(O)(c2ccc(-c3cccc(C)c3C)cc2)CC1` [J2]: the IC50 was found to be 2.5 µM.

With `Cc1cccc(-c2ccc(C3CCN(S(=O)(=O)c4cccnc4)CC3)cc2)c1C` [A16], the IC50 stood at 12 µM.

For `COC[C@H]1[C@H](c2ccc(C#Cc3ccccc3F)cc2)[C@@H]2CN(C(=O)NC(C)C)CCCCN12` [compound 304], the IC50 turned out to be 2 µM.

As for `Cc1ccccc1S(=O)(=O)N1CCCCN2[C@H](CO)[C@@H](c3ccc(-c4cccc(F)c4F)cc3)[C@@H]2C1` [K15], the IC50 amounted to 0.8 µM.

Take `Cc1cccc(-c2ccc(C3CCN(Cc4ccc(F)c5ccccc45)CC3)cc2)c1C` [A35]: the IC50 was found to be 12 µM.

Consider `CC(=O)Nc1ccc(S(=O)(=O)N2CCCCN3[C@H](CO)[C@@H](c4ccc(-c5cccc(C)c5C)cc4)[C@@H]3C2)c(C)c1` [JP-S12], for which the IC50 stood at 0.03 µM.

As to `Cc1cccc(-c2ccc(N3CCN(C(=O)CC4CCCCC4)CC3)cc2)c1C` [J16], the IC50 is 2.5 µM.

As for `CCC(=O)N1[C@H](CO)[C@H](c2ccc(-c3ccccc3OC)cc2)[C@@H]1CNC(C)=O` [D3], the IC50 stood at 7 µM.

With `Cc1cccc(-c2ccc(C3CCN(Cc4ccc(Oc5ccccc5)cc4)CC3)cc2)c1C` [A31], the concentration for half-maximal inhibition (IC50) amounted to 12 µM.

Regarding `COC[C@@H]1[C@@H](c2ccc(-c3ccc(F)c(C)c3C)cc2)[C@@H]2CN(S(=O)(=O)c3ccccc3C(F)(F)F)CCCCN12` [JP-41-OMe], the IC50 was 0.09 µM.

Take `COC(=O)c1ccc(S(=O)(=O)N2CCCCN3C(C2)[C@H](c2ccc(-c4cccc(C)c4C)cc2)[C@H]3CO)n1C` (some centres unmarked) [JP-S27]: the IC50 is more than 5 µM.

Regarding `Cc1cccc(-c2ccc([C@@H]3[C@@H](CO)N4CCCCN(S(=O)(=O)c5ccnn5C(C)C)C[C@@H]34)cc2)c1C` [JP-S10], the IC50 was 0.015 µM.

Consider `Cc1cccc(-c2ccc(C3CCN(C(=O)c4ccc5c(c4)OCCN5C)CC3)cc2)c1C` [A25], for which the IC50 came to 0.9 µM.

Turning to `Cc1ccccc1S(=O)(=O)N1CCCCN2[C@H](CO)[C@@H](c3ccc(-c4ccc5c(c4)OCO5)cc3)[C@@H]2C1` [K5], the IC50 stood at 2.5 µM.

With `Cc1cccc(-c2ccc(C3CCN(C(=O)Oc4ccc5ccccc5c4)CC3)cc2)c1C` [A30], the IC50 stood at 12 µM.

Turning to `Cc1cc(S(=O)(=O)N2CCCCN3[C@H](CO)[C@@H](c4ccc(-c5cccc(C)c5C)cc4)[C@@H]3C2)n(C)n1` [JP-S25], the IC50 turned out to be 0.02 µM.

For the molecule `Cc1cccc(-c2ccc(N3CCN(C(=O)C4CCCC4)CC3)cc2)c1C` [J10], the IC50 was 2.5 µM.

`Cc1cccc(-c2ccc([C@@H]3[C@@H](CO)N4CCCCN(C(=O)c5ccc6c(c5)OCO6)C[C@@H]34)cc2)c1` [compound 291]: the IC50 was more than 200 µM.

As to `Cc1ccccc1S(=O)(=O)N1CCCCN2[C@H](CO)[C@@H](c3ccc(-c4cccc(F)c4)cc3)[C@@H]2C1` [K11], the IC50 was found to be 2.5 µM.

Take `Cc1cccc(-c2ccc(C3CCN(S(=O)(=O)c4ccc5c(c4)CCC(=O)N5)CC3)cc2)c1C` [A10]: the IC50 turned out to be 33 µM.

For the molecule `Cc1cccc(-c2ccc([C@@H]3[C@@H](CO)N4CCCCN(S(=O)(=O)c5ccnn5C)C[C@@H]34)cc2)c1C` [JP-S24], the IC50 was 0.01 µM.

Consider `COc1cccc(-c2ccc([C@@H]3[C@@H](CO)N4CCCCN(CC5CCOCC5)C[C@@H]34)cc2)c1` [compound 644], for which the IC50 is more than 100 µM.

`O=S(=O)(c1ccccc1C(F)(F)F)N1C/C=C\CN2C(C1)[C@H](c1ccc(-c3cccc(Cl)c3Cl)cc1)[C@H]2CO` (some centres unmarked) [K21]: the IC50 is 0.008 µM.

Consider `Cc1cccc(-c2ccc([C@@H]3[C@@H](CO)N4CCCCN(S(=O)(=O)N5CCN(C)CC5)C[C@@H]34)cc2)c1C` [JP-S22], for which the IC50 was found to be 0.03 µM.

On to `Cc1ccccc1S(=O)(=O)N1CCCCN2[C@H](CO)[C@@H](c3ccc(-c4cccc(O)c4)cc3)[C@@H]2C1` [B7], for which the concentration for half-maximal inhibition (IC50) is 7.5 µM.

With `COC[C@@H]1[C@@H](c2ccc(-c3cccc(C)c3C)cc2)C2CN(S(=O)(=O)c3cnc(C)n3C)C/C=C\CN21` (some centres unmarked) [JP-S18-OMe], the IC50 was found to be 0.02 µM.

Consider `Cc1cc2c(cc1S(=O)(=O)N1CCCCN3[C@H](CO)[C@@H](c4ccc(-c5cccc(C)c5C)cc4)[C@@H]3C1)OCC(=O)N2` [JP-S13], for which the IC50 turned out to be 0.1 µM.

In the case of `Cc1cccc(-c2ccc([C@@H]3[C@@H](CO)N4CCCCN(S(=O)(=O)c5ccc(F)cc5C(F)(F)F)C[C@@H]34)cc2)c1C` [JP-S15], the IC50 is 0.05 µM.

For the molecule `Cc1ccccc1S(=O)(=O)N1CCCCN2[C@H](CO)[C@@H](c3ccc(-c4ccc(F)c(F)c4C)cc3)[C@@H]2C1` [K24], the IC50 was determined as 0.3 µM.

Consider `Cc1cccc(-c2ccc(C3CCN(S(=O)(=O)c4ccc5c(c4)OCCO5)CC3)cc2)c1C` [A01], for which the IC50 was more than 30 µM.

The assay is the same for the next values; noted with them: fluorogenic peptide Mca-RPPGFSAFK(Dnp)-OH; plateau at high inhibitor concentration.
For the molecule `Cc1ccccc1-c1ccc([C@@H]2[C@@H](CO)N3CCCCN(S(=O)(=O)c4ccccc4C)C[C@@H]23)cc1` [B13], the “Imax (%) Proteolysis (inhibition maximum)” value is 65%.

Staying with this assay, now noted: fluorogenic peptide Mca-RPPGFSAFK(Dnp)-OH; plateau at high inhibitor concentration; read-out: Imax (%) Proteolysis (inhibition maximum).
`Cc1ccccc1S(=O)(=O)N1CCCCN2C(C1)[C@H](c1ccc(-c3ccccc3)cc1)[C@H]2CO` (some centres unmarked) [K7]: the Emax was 65%.

For `Cc1cccc(-c2ccc([C@H]3[C@H](CO)N4C(=O)CN(C(=O)NC5CCCCC5)C[C@@H]34)cc2)c1` [compound 130], the Emax was determined as 60%.

In the case of `Cc1ccc(C)c(-c2ccc([C@@H]3[C@@H](CO)N4CCCCN(S(=O)(=O)c5ccccc5C)C[C@@H]34)cc2)c1` [B12], the Emax is 65%.

As for `OC[C@H]1[C@@H](c2ccc(C#Cc3ccccc3F)cc2)[C@@H]2CN(Cc3cncnc3)CCCCN12` [compound 683], the Emax was 80%.

On to `Cc1ccccc1S(=O)(=O)N1CCCCN2[C@H](CO)[C@@H](c3ccc(-c4ccccc4)cc3)[C@@H]2C1` [B6], for which the Emax is 65%.

Turning to `Cc1ccccc1S(=O)(=O)N1CCCCN2C(C1)[C@H](c1ccc(-c3cnc(F)c(C)c3)cc1)[C@H]2CO` (some centres unmarked) [K26], the Emax came to 100%.

For `COC[C@H]1[C@H](c2ccc(C#Cc3ccccc3F)cc2)[C@@H]2CN(C(=O)NC(C)C)CCCCN12` [compound 304], the Emax came out at 80%.

As for `Cc1ccccc1S(=O)(=O)N1CCCCN2C(C1)[C@H](c1ccc(-c3cccc(C)c3C)cc1)[C@H]2CO` (some centres unmarked) [K9], the Emax is 65%.

For `CCC(=O)N1[C@H](CO)[C@H](c2ccc(-c3ccccc3OC)cc2)[C@@H]1CNC(C)=O` [D3], the Emax was found to be 50%.

Take `Cc1ccccc1-c1ccc([C@@H]2[C@@H](CO)N3CCCCN(S(=O)(=O)c4ccccc4C)C[C@@H]23)cc1` [B11]: the Emax came to 65%.

For `Cc1ccccc1-c1ccc([C@H]2[C@H]3CN(C(=O)NC4CCCC4)CC(=O)N3[C@H]2CO)cc1` [compound 612], the Emax was 50%.

As for `Cc1cccc(-c2ccc([C@@H]3[C@H](CO)N4CCCCN(S(=O)(=O)c5ccccc5F)C[C@@H]34)cc2)c1` [Compound 807], the Emax worked out at 30%.

Consider `Cc1ccccc1S(=O)(=O)N1CCCCN2[C@H](CO)[C@@H](c3ccc(-c4cccc(O)c4)cc3)[C@@H]2C1` [B7], for which the Emax came to 100%.

On to `Cc1ccccc1S(=O)(=O)N1CCCCN2[C@H](CO)[C@@H](c3ccc(-c4ccc5c(c4)OCO5)cc3)[C@@H]2C1` [B4], for which the Emax turned out to be 100%.

In the case of `COc1cccc(-c2ccc([C@H]3C4CN(S(=O)(=O)c5ccccc5C)CCCCN4[C@@H]3CO)cc2)c1` (some centres unmarked) [K3], the Emax came out at 65%.

Values taken from patent US11040976B2, “Substrate selective inhibitors of insulin-degrading enzyme (IDE) and uses thereof” (President and Fellows of Harvard College, priority 2015, dated 2021).
